Measurements as given in ChEMBL document CHEMBL2016493, “Design, synthesis, synergistic antimicrobial activity and cytotoxicity of 4-aryl substituted 3,4-dihydropyrimidinones of curcumin” (Bioorg Med Chem Lett, 2012).
Activity calls are given as the source filed them. No cut-off for these calls is given here.

Experiments:
Escherichia coli [1] = assay: Antibacterial activity against Escherichia coli ATCC 35218 at 40 uM/ml after 24 hrs by kirby-bauer method; assay type: functional; details: ATCC 35218, 24 h, read-out: IZ
Aspergillus niger [2] = assay: Antifungal activity against Aspergillus niger MTCC 1108 at 40 uM/ml after 48 hrs by paper disc diffusion method; assay type: functional
Escherichia coli [3] = assay: Antibacterial activity against Escherichia coli ATCC 35218 at 160 uM/ml after 24 hrs by kirby-bauer method; assay type: functional
Curvularia lunata [4] = assay: Antifungal activity against Curvularia lunata MTCC 581 at 80 uM/ml after 48 hrs by paper disc diffusion method; assay type: functional; details: MTCC 581, 48 h, read-out: IZ
Curvularia lunata [5] = assay: Antifungal activity against Curvularia lunata MTCC 581 at 20 uM/ml after 48 hrs by paper disc diffusion method; assay type: functional; details: MTCC 581, 48 h, read-out: IZ
[6] = test system: Burkholderia pseudomallei; assay: Antibacterial activity against Burkholderia pseudomallei NTCC 10274 at 80 uM/ml after 24 hrs by kirby-bauer method; assay type: functional; details: NTCC 10274, 24 h, read-out: IZ
[7] = test system: Burkholderia pseudomallei; assay: Antibacterial activity against Burkholderia pseudomallei NTCC 10274 at 160 uM/ml after 24 hrs by kirby-bauer method; assay type: functional; details: NTCC 10274, 24 h, read-out: IZ
Aspergillus flavus [8] = assay: Antifungal activity against Aspergillus flavus MTCC 1021 at 20 uM/ml after 48 hrs by paper disc diffusion method; assay type: functional
Aspergillus flavus [9] = assay: Antifungal activity against Aspergillus flavus MTCC 1021 at 160 uM/ml after 48 hrs by paper disc diffusion method; assay type: functional; details: MTCC 1021, 48 h, read-out: IZ
Aspergillus flavus [10] = assay: Antifungal activity against Aspergillus flavus MTCC 1021 at 80 uM/ml after 48 hrs by paper disc diffusion method; assay type: functional
Aspergillus niger [11] = assay: Antifungal activity against Aspergillus niger MTCC 1108 at 20 uM/ml after 48 hrs by paper disc diffusion method; assay type: functional
Trichoderma viride [12] = assay: Antifungal activity against Trichoderma viride MTCC 1107 at 40 uM/ml after 48 hrs by paper disc diffusion method; assay type: functional; details: MTCC 1107, 48 h, read-out: IZ
Staphylococcus aureus [13] = assay: Antibacterial activity against Staphylococcus aureus ATCC 11632 at 20 uM/ml after 24 hrs by kirby-bauer method; assay type: functional
QG-56 = assay: Cytotoxicity against human QG56 cells after 48 hrs by MTT assay; assay type: functional, cell-based
Trichoderma viride [14] = assay: Antifungal activity against Trichoderma viride MTCC 1107 at 20 uM/ml after 48 hrs by paper disc diffusion method; assay type: functional; details: MTCC 1107, 48 h, read-out: IZ
Aspergillus flavus [15] = assay: Antifungal activity against Aspergillus flavus MTCC 1021 at 40 uM/ml after 48 hrs by paper disc diffusion method; assay type: functional
Trichoderma viride [16] = assay: Antifungal activity against Trichoderma viride MTCC 1107 at 80 uM/ml after 48 hrs by paper disc diffusion method; assay type: functional; details: MTCC 1107, 48 h, read-out: IZ
Salmonella typhimurium [17] = assay: Antibacterial activity against Salmonella typhimurium ATCC 23564 at 40 uM/ml after 24 hrs by kirby-bauer method; assay type: functional, Salmonella enterica subsp. enterica serovar Typhimurium
Curvularia lunata [18] = assay: Antifungal activity against Curvularia lunata MTCC 581 at 40 uM/ml after 48 hrs by paper disc diffusion method; assay type: functional; details: MTCC 581, 48 h, read-out: IZ
Aspergillus niger [19] = assay: Antifungal activity against Aspergillus niger MTCC 1108 at 160 uM/ml after 48 hrs by paper disc diffusion method; assay type: functional; details: MTCC 1108, 48 h, read-out: IZ
Staphylococcus aureus [20] = assay: Antibacterial activity against Staphylococcus aureus ATCC 11632 at 160 uM/ml after 24 hrs by kirby-bauer method; assay type: functional; details: ATCC 11632, 24 h, read-out: IZ
Salmonella typhimurium [21] = assay: Antibacterial activity against Salmonella typhimurium ATCC 23564 at 20 uM/ml after 24 hrs by kirby-bauer method; assay type: functional, Salmonella enterica subsp. enterica serovar Typhimurium
Salmonella typhimurium [22] = assay: Antibacterial activity against Salmonella typhimurium ATCC 23564 at 160 uM/ml after 24 hrs by kirby-bauer method; assay type: functional, Salmonella enterica subsp. enterica serovar Typhimurium; details: Salmonella enterica, ATCC 23564, 24 h; read-out: IZ
Escherichia coli [23] = assay: Antibacterial activity against Escherichia coli ATCC 35218 at 20 uM/ml after 24 hrs by kirby-bauer method; assay type: functional
Pseudomonas aeruginosa [24] = assay: Antibacterial activity against Pseudomonas aeruginosa ATCC 15499 at 160 uM/ml after 24 hrs by kirby-bauer method; assay type: functional
[25] = test system: Burkholderia pseudomallei; assay: Antibacterial activity against Burkholderia pseudomallei NTCC 10274 at 20 uM/ml after 24 hrs by kirby-bauer method; assay type: functional
Escherichia coli [26] = assay: Antibacterial activity against Escherichia coli ATCC 35218 at 80 uM/ml after 24 hrs by kirby-bauer method; assay type: functional; details: ATCC 35218, 24 h, read-out: IZ
Trichoderma viride [27] = assay: Antifungal activity against Trichoderma viride MTCC 1107 at 160 uM/ml after 48 hrs by paper disc diffusion method; assay type: functional; details: MTCC 1107, 48 h, read-out: IZ
Staphylococcus aureus [28] = assay: Antibacterial activity against Staphylococcus aureus ATCC 11632 at 40 uM/ml after 24 hrs by kirby-bauer method; assay type: functional
Salmonella typhimurium [29] = assay: Antibacterial activity against Salmonella typhimurium ATCC 23564 at 80 uM/ml after 24 hrs by kirby-bauer method; assay type: functional, Salmonella enterica subsp. enterica serovar Typhimurium
Aspergillus niger [30] = assay: Antifungal activity against Aspergillus niger MTCC 1108 at 80 uM/ml after 48 hrs by paper disc diffusion method; assay type: functional; details: MTCC 1108, 48 h, read-out: IZ
[31] = test system: Burkholderia pseudomallei; assay: Antibacterial activity against Burkholderia pseudomallei NTCC 10274 at 40 uM/ml after 24 hrs by kirby-bauer method; assay type: functional
Staphylococcus aureus [32] = assay: Antibacterial activity against Staphylococcus aureus ATCC 11632 at 80 uM/ml after 24 hrs by kirby-bauer method; assay type: functional; details: ATCC 11632, 24 h, read-out: IZ
Curvularia lunata [33] = assay: Antifungal activity against Curvularia lunata MTCC 581 at 160 uM/ml after 48 hrs by paper disc diffusion method; assay type: functional; details: MTCC 581, 48 h, read-out: IZ
Pseudomonas aeruginosa [34] = assay: Antibacterial activity against Pseudomonas aeruginosa ATCC 15499 at 40 uM/ml after 24 hrs by kirby-bauer method; assay type: functional
Pseudomonas aeruginosa [35] = assay: Antibacterial activity against Pseudomonas aeruginosa ATCC 15499 at 80 uM/ml after 24 hrs by kirby-bauer method; assay type: functional; details: ATCC 15499, 24 h, read-out: IZ
Pseudomonas aeruginosa [36] = assay: Antibacterial activity against Pseudomonas aeruginosa ATCC 15499 at 20 uM/ml after 24 hrs by kirby-bauer method; assay type: functional
[37] = Salmonella enterica, ATCC 23564, 24 h, read-out: IZ
[38] = Salmonella enterica subsp. enterica serovar Typhimurium

Question: What does the source list for `COc1cc(/C=C/C(=O)C2=C(/C=C/c3ccc(O)c(OC)c3)NC(=S)NC2c2ccc(Cl)cc2)ccc1O` (configuration not stated)?
Answer: zone of inhibition at 40 µM (Escherichia coli [1]): 9 mm; inhibition zone (IZ) (Aspergillus niger [2]): inactive; zone of inhibition at 160 µM (Escherichia coli [3]; ATCC 35218, 24 h, read-out: IZ): 19 mm; IC50 (HCT-116): 50 uM/ml; zone of inhibition at 80 µM (Curvularia lunata [4]): 13 mm; zone of inhibition at 20 µM (Curvularia lunata [5]): 9 mm; zone of inhibition at 80 µM [6]: 12 mm; zone of inhibition at 160 µM [7]: 16 mm; inhibition zone (IZ) (Aspergillus flavus [8]): inactive; zone of inhibition at 160 µM (Aspergillus flavus [9]): 9 mm; inhibition zone (IZ) (Aspergillus flavus [10]): inactive; inhibition zone (IZ) (Aspergillus niger [11]): inactive; zone of inhibition (Trichoderma viride [12]): 19 mm; zone of inhibition at 20 µM (Staphylococcus aureus [13]; ATCC 11632, 24 h, read-out: IZ): 9 mm; IC50 (QG-56): 100 uM/ml; zone of inhibition at 20 µM (Trichoderma viride [14]): 18 mm; inhibition zone (IZ) (Aspergillus flavus [15]): inactive; zone of inhibition at 80 µM (Trichoderma viride [16]): 22 mm; zone of inhibition at 40 µM (Salmonella typhimurium [17]; [37]): 17 mm; zone of inhibition at 40 µM (Curvularia lunata [18]): 12 mm; zone of inhibition at 160 µM (Aspergillus niger [19]): 11 mm; zone of inhibition at 160 µM (Staphylococcus aureus [20]): 16 mm; zone of inhibition at 20 µM (Salmonella typhimurium [21]; [37]): 13 mm; zone of inhibition at 160 µM (Salmonella typhimurium [22]): 22 mm; inhibition zone (IZ) (Escherichia coli [23]): inactive; inhibition zone (IZ) (Pseudomonas aeruginosa [24]): inactive; inhibition zone (IZ) [25]: inactive; IC50 (HepG2): 100 uM/ml; zone of inhibition at 80 µM (Escherichia coli [26]): 15 mm; zone of inhibition at 160 µM (Trichoderma viride [27]): 24 mm; zone of inhibition at 40 µM (Staphylococcus aureus [28]; ATCC 11632, 24 h, read-out: IZ): 11 mm; zone of inhibition at 80 µM (Salmonella typhimurium [29]; [37]): 19 mm; zone of inhibition at 80 µM (Aspergillus niger [30]): 9 mm; zone of inhibition at 40 µM ([31]; NTCC 10274, 24 h, read-out: IZ): 9 mm; zone of inhibition at 80 µM (Staphylococcus aureus [32]): 13 mm; zone of inhibition at 160 µM (Curvularia lunata [33]): 15 mm

Question: For `COc1cc(/C=C/C(=O)C2=C(/C=C/c3ccc(O)c(OC)c3)NC(=S)NC2c2ccc([N+](=O)[O-])cc2)ccc1O` (configuration not stated), which zone of inhibition at 40 µM (Aspergillus niger [2]; MTCC 1108, 48 h, read-out: IZ) is on record?
Answer: 9 mm

Question: What about the “inhibition zone (IZ)” value (Escherichia coli [3]) of the same molecule?
Answer: inactive

Question: And the IC50 (HCT-116)?
Answer: 100 uM/ml

Question: And the zone of inhibition at 80 µM (Curvularia lunata [4])?
Answer: 19 mm

Question: And the zone of inhibition at 20 µM (Curvularia lunata [5])?
Answer: 14 mm

Question: What about the zone of inhibition at 80 µM [6] of the same molecule?
Answer: 9 mm

Question: And the zone of inhibition at 160 µM [7]?
Answer: 11 mm

Question: And the “inhibition zone (IZ)” value (Aspergillus flavus [8])?
Answer: inactive

Question: What about the zone of inhibition at 160 µM (Aspergillus flavus [9]) of the same molecule?
Answer: 11 mm

Question: What about the “inhibition zone (IZ)” value (Aspergillus flavus [10]) of the same molecule?
Answer: inactive

Question: And the “inhibition zone (IZ)” value (Aspergillus niger [11])?
Answer: inactive

Question: And the zone of inhibition (Trichoderma viride [12])?
Answer: 18 mm

Question: What about the “inhibition zone (IZ)” value (Staphylococcus aureus [13]) of the same molecule?
Answer: inactive

Question: And the “inhibition zone (IZ)” value (Pseudomonas aeruginosa [34])?
Answer: inactive

Question: And the IC50 (QG-56)?
Answer: 50 uM/ml

Question: What about the zone of inhibition at 20 µM (Trichoderma viride [14]) of the same molecule?
Answer: 17 mm

Question: What about the “inhibition zone (IZ)” value (Aspergillus flavus [15]) of the same molecule?
Answer: inactive

Question: What about the zone of inhibition at 80 µM (Trichoderma viride [16]) of the same molecule?
Answer: 21 mm

Question: What about the “inhibition zone (IZ)” value (Salmonella typhimurium [17]; [38]) of the same molecule?
Answer: inactive

Question: And the zone of inhibition at 40 µM (Curvularia lunata [18])?
Answer: 17 mm

Question: And the zone of inhibition at 160 µM (Aspergillus niger [19])?
Answer: 13 mm

Question: What about the zone of inhibition at 160 µM (Staphylococcus aureus [20]) of the same molecule?
Answer: 12 mm

Question: What about the “inhibition zone (IZ)” value (Salmonella typhimurium [21]; [38]) of the same molecule?
Answer: inactive

Question: What about the zone of inhibition at 160 µM (Salmonella typhimurium [22]) of the same molecule?
Answer: 10 mm

Question: What about the zone of inhibition at 160 µM (Pseudomonas aeruginosa [24]; ATCC 15499, 24 h, read-out: IZ) of the same molecule?
Answer: 10 mm

Question: And the “inhibition zone (IZ)” value [25]?
Answer: inactive

Question: What about the IC50 (HepG2) of the same molecule?
Answer: 50 uM/ml

Question: What about the zone of inhibition at 160 µM (Trichoderma viride [27]) of the same molecule?
Answer: 22 mm

Question: And the “inhibition zone (IZ)” value (Staphylococcus aureus [28])?
Answer: inactive

Question: What about the “inhibition zone (IZ)” value (Salmonella typhimurium [29]; [38]) of the same molecule?
Answer: inactive

Question: What about the zone of inhibition at 80 µM (Aspergillus niger [30]) of the same molecule?
Answer: 11 mm

Question: And the “inhibition zone (IZ)” value [31]?
Answer: inactive

Question: What about the zone of inhibition at 80 µM (Staphylococcus aureus [32]) of the same molecule?
Answer: 10 mm

Question: What about the zone of inhibition at 160 µM (Curvularia lunata [33]) of the same molecule?
Answer: 21 mm

Question: What about the zone of inhibition at 80 µM (Pseudomonas aeruginosa [35]) of the same molecule?
Answer: 9 mm

Question: What about the “inhibition zone (IZ)” value (Pseudomonas aeruginosa [36]) of the same molecule?
Answer: inactive
